Here are results for two compounds from patent US6579888B2, “Method and kit for treating illnesses” (Opt-e-scrip, Inc., priority 1994, dated 2003).

In data set [1] the test system is hyperactive child (Minimum Brain Dysfunction). The data set is described as follows: SPAS single-patient random double-blind crossover trial of methylphenidate versus placebo. How it is done: In this example, the usefulness of methylphenidate (Ritalin) treatment in a hyperactive child (Minimum Brain Dysfunction) is evaluated.
Technology: Consists of instructions, “calendar” packaging for drug and a substantially identical looking placebo to assure appropriate dosing and monitor compliance, questionnaire assessment forms and instructions. […] Results are mailed to the physician and, in this case, parent for use in evaluating the usefulness of the therapy. The physician and parent are contacted, e.g., every three months to provide data on therapies utilized, and perceived outcome, until the condition resolves.
The questionnaire portion of the kit includes an initial consent form for the parent or guardian to complete. The questionnaire also provides background information on the study and possible side effects associated with the medication. Also included therein is a portion for providing relevant patient and family histories. More importantly, the questionnaire, in this case includes a portion for the weekly input by parents or guardian and school observers of answers to questions relating to the drug evaluation. Typical questionnaire sheet for these portions are shown below as Table 1 and Table 2. Physician questionnaires are similarly arranged.
The trial calls for 40 mg daily given at 10 mg four times daily compared to identical appearing placebo given four times daily.

Data set [2] deals with patients with the same disorder (hyperactive child). Description: Pooled SPAS data and monthly follow-up of patients with the same disorder continued on methylphenidate. The data set is classed as in vivo, human. How it is done: All results obtained from the data are then compared against the results provided by data amassed from a pool of about 200 patients with the same disorder. Of these 200 patients, 55 experienced encouraging results (as did the current patient) and were continued on 40 mg daily treatment. Of these 55 patients, 5 were lost to follow-up, with 50 remaining for prospective evaluation. Because the physician would now choose to continue the patient on 40 mg methylphenidate daily based solely on the isolated SPAS single patient drug trial results, they now take the opportunity of reviewing the pooled data on the 50 patients. This is done to understand under what circumstances this individual patient would likely continue to show benefit from methylphenidate 40 mg treatment, and what conditions lead to treatment failure.
The pool of 50 patients who continued treatment had the following scores following the original SPAS testing:
All 50 patients were followed up by telephone interview monthly for nine months or more, and outcomes were prospectively documented.

Data set [3] relates to hypertensive person. Description: Six-week random double-blind trial of sustained release verapamil as therapeutic alternative to sustained release propranolol. The data set is classed as in vivo, human. The note with it: verapamil SR 240 mg once daily versus propranolol SR 180 mg once daily; end of six-week trial; statistically insignificant. How it is done:
In this example, the validity of using a sustained release formulation of verapamil 240 mg once daily as a therapeutic alternative to sustained release propranolol 180 mg once daily in a hypertensive person is shown. The trial during which the two medications are randomly administered in a double-blind manner is six weeks. The questionnaire used is set up in a manner similar to that described in above examples except that the questions elicit information related to the disease of hypertension. Blood pressure is taken daily by the patient and weekly by the physician. Lab values and vision tests are also reported weekly by the physician. […] Both values are statistically insignificant and the therapeutic alternative selection is objectively validated.

The mark [4] stands for this setting: patients with statistically altered sleep patterns, continued 40 mg daily.
Setting [5] is: pool of 50 patients, original SPAS testing.

Molecules are shown by their SMILES.

Consider `COC(=O)C(c1ccccc1)C1CCCCN1` (stereo not shown) [methylphenidate], for which the “patient's attention span” value in data set [1] (40 mg daily (10 mg four times daily), methylphenidate periods versus placebo periods) is on record as “improved substantially”. The teacher comments result in data set [1] (40 mg daily, methylphenidate dosing periods) is “corroborate improved attention span”. For the same compound, in data set [1] (40 mg daily, methylphenidate periods), the sleep patterns result is given as “statistically altered”. Further, in data set [2] (40 mg daily, monthly follow-up for nine months or more), the “outcome on continued treatment, patients with no statistically altered sleep disturbances” value was “continued to be well maintained on treatment”. Also, the “outcome on continued treatment, patients with statistically altered sleep patterns” value in data set [2] (40 mg daily, within two months) was “showed loss of symptom control”. Also, in data set [2] (all patients with a statistically altered sleep disturbance), the discontinuation from treatment result is given as “had to be discontinued from treatment within two months”. Besides, in data set [2] (of a pool of about 200 patients, 40 mg daily), the “patients who experienced encouraging results and were continued on treatment” value is listed as 55 patients. For the same compound, in data set [2] (setting [4]), the “patients who experienced a grand mal seizure” value is reported as “two” and the “severe episodes of bizarre behaviors / severe adverse event” value is given as 90%. Besides, in data set [2] (pool of 50 patients who continued treatment, original SPAS testing), the “Attention Span: patients who had substantial improvement” value came out at 100% had substantial. Also, in data set [2] (setting [5]), the “Sleep Patterns: patients not statistically altered” value was determined as 50% were not statistically, the “Sleep Patterns: patients statistically altered” value is 50% were statistically altered, the “Teacher Comments: corroborate improved attention span” value stood at 80% corroborate improved and the “Teacher Comments: did not corroborate improved attention span” value is 20% did not corroborate.

Consider `COc1ccc(CCN(C)CCCC(C#N)(c2ccc(OC)c(OC)c2)C(C)C)cc1OC` (stereo not shown) [verapamil], for which, in data set [3], the mean diastolic pressure result is “essentially stable” and the “mean systolic blood pressure increase” value came out at 3%.
